# Measured values: patent US6461997B1, “Triazole sulfones having herbicidal activity” (Monsanto Technology LLC, priority 1999, dated 2002)
# System: soybean (GLYMX)
# Assay: Selectivity test, PPI, warm season crop
# Format: in vivo, Glycine max
# Settings: PPI application, 30 g/ha
# Protocol: (§1) A pre-prepared topsoil mixture (described above) was placed in a pot and compacted to a depth of 1.0 to 1.25 cm from the top of the pot. Seeds of each of several monocotyledonous and dicotyledonous annual plant species were placed on top of the soil. A sufficient quantity of soil to cover the seeds and level fill the pot was weighed into an open container. A known amount of the test compound was dissolved or suspended in an organic solvent and applied by spraying to this cover soil. The cover soil was thoroughly mixed to distribute the test compound throughout the cover soil, and was then applied as a cover layer over the seeds. Untreated soil was used as a cover layer for control pots. After treatment the plants were placed in a greenhouse where they received 0.64 cm of overhead irrigation. All subsequent watering consisted of a light overhead mist and/or subirrigation as needed for germination and growth. Tables 9 and 10 below relate to warm season plant species which were placed after pre-emergence treatment in a greenhouse with a 30/21° C. day/night temperature regime. Tables 11 and 12 below relates to cool season plant species placed after pre-emergence treatment in a greenhouse or growth chamber with an 18/13° C. day/night temperature regime. Only the compounds of Examples 1, 6, 8, 11, 13 and 15-20 were included in PPI tests.
# (§2) Approximately 14 days after planting and treating, the plants were observed and herbicidal efficacy recorded as percent inhibition by comparison with untreated plants.
# (§3) Additional pre-emergence and PPI tests were conducted by the procedures described above, on warm and cool season weed species in the presence of crop species, to assess herbicidal selectivity. Crop species included in warm season tests were corn (Zea mays, ZEAMX), rice (Oryza sativa, ORYSA) and soybean (Glycine max, GLYMX). Crop species included in cool season tests were wheat (Triticum aestivum, TRZAW), barley (Hordeunm vulgare, HORVX) and oilseed rape (Brassica napus, BRSNS).
# (§4) Tables 15 and 16 relate to pre-emergence and PPI tests respectively on warm season species. Table 17 relates to pre-emergence tests on cool season species.
row,SMILES,Percent inhibition GLYMX [%]
1,CCN(CC)C(=O)n1cnc(S(=O)(=O)C(F)(F)SC)n1 [Example 9],0
2,CCN(CC)C(=O)n1cnc(S(=O)(=O)C(F)(F)C(F)(F)Br)n1 [Example 4],0
3,CCN(CC)C(=O)n1cnc(S(=O)(=O)C(F)(F)F)n1 [Example 2],0

# Same assay, conditions: PPI application, 100 g/ha
row,SMILES,Percent inhibition GLYMX [%]
1,CCN(CC)C(=O)n1cnc(S(=O)(=O)C(F)(F)SC)n1 [Example 9],10
2,CCN(CC)C(=O)n1cnc(S(=O)(=O)C(F)(F)C(F)(F)Br)n1 [Example 4],0
3,CCN(CC)C(=O)n1cnc(S(=O)(=O)C(F)(F)F)n1 [Example 2],0

# Same assay, conditions: PPI application, 300 g/ha
row,SMILES,Percent inhibition GLYMX [%]
1,CCN(CC)C(=O)n1cnc(S(=O)(=O)C(F)(F)SC)n1 [Example 9],20
2,CCN(CC)C(=O)n1cnc(S(=O)(=O)C(F)(F)C(F)(F)Br)n1 [Example 4],0
3,CCN(CC)C(=O)n1cnc(S(=O)(=O)C(F)(F)F)n1 [Example 2],10

# Same assay, conditions: PPI application, 900 g/ha
row,SMILES,Percent inhibition GLYMX [%]
1,CCN(CC)C(=O)n1cnc(S(=O)(=O)C(F)(F)SC)n1 [Example 9],40
2,CCN(CC)C(=O)n1cnc(S(=O)(=O)C(F)(F)C(F)(F)Br)n1 [Example 4],10
3,CCN(CC)C(=O)n1cnc(S(=O)(=O)C(F)(F)F)n1 [Example 2],20

# System: SORHA (johnsongrass (seedling))
# Assay: Pre-emergence herbicidal activity, warm season
# Format: in vivo, Sorghum halepense
# Settings: GR80 = lowest tested rate (300, 100, 30, 10 g/ha) with 80% or greater inhibition; approx. 14 days after treating; 30/21° C.
# Summary of the method: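 GR80 values derive from percent inhibition relative to untreated plants, read roughly 14 days after sowing and pre-emergence soil-surface treatment (compound in 50:50 acetone/water; rates typically 10, 30, 100, 300 g/ha). Warm-season weeds grew at 30/21° C day/night, cool-season ones at 18/13° C; an asterisk marks activity without reaching 80% at the highest rate.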
row,SMILES,Pre-emergence activity (GR80) SORHA [g/ha]
1,CCN(CC)C(=O)n1cnc(S(=O)(=O)C(F)(F)SC)n1 [Example 9],100
2,CCN(CC)C(=O)n1cnc(S(=O)(=O)C(F)(F)C(=O)c2ccccc2)n1 [Example 6],100
3,CCN(CC)C(=O)n1cnc(S(=O)(=O)C(F)(F)C(F)(F)Br)n1 [Example 4],30
4,CCN(CC)C(=O)n1cnc(S(=O)(=O)C(F)(F)F)n1 [Example 2],100
5,CCN(CC)C(=O)n1cnc(S(=O)(=O)C(F)(F)C(F)(F)SC)n1 [Example 14],300

# System: ALOMY (blackgrass)
# Assay: Pre-emergence herbicidal activity, cool season
# Format: in vivo, Alopecurus myosuroides
# Settings: GR80 = lowest tested rate (300, 100, 30, 10 g/ha) with 80% or greater inhibition; approx. 14 days after treating; 18/13° C.
# Summary of the method: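 Seeds were sown in sterilized, fertilized topsoil, covered, and the soil surface was sprayed with compound in 50:50 acetone/water at 300, 100, 30 and 10 g/ha. Pots were held at 30/21 °C day/night (PANMI, DIGSA) or 18/13 °C (ALOMY, POLCO). GR80 came from percent inhibition versus untreated plants at about 14 days.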
row,SMILES,Pre-emergence activity (GR80) ALOMY [g/ha]
1,CCN(CC)C(=O)n1cnc(S(=O)(=O)C(F)(F)SC)n1 [Example 9],300
2,CCN(CC)C(=O)n1cnc(S(=O)(=O)C(F)(F)C(=O)c2ccccc2)n1 [Example 6],100
3,CCN(CC)C(=O)n1cnc(S(=O)(=O)C(F)(F)C(F)(F)Br)n1 [Example 4],300
4,CCN(CC)C(=O)n1cnc(S(=O)(=O)C(F)(F)F)n1 [Example 2],100
5,CCN(CC)C(=O)n1cnc(S(=O)(=O)C(F)(F)C(F)(F)SC)n1 [Example 14],100

# System: AVEFA (wild oat)
# Assay: Pre-plant incorporated (PPI) herbicidal activity, cool season
# Format: in vivo, Avena fatua
# Settings: pre-plant incorporated; lowest tested rate with 80% or greater inhibition; about 14 days
# Protocol: In another set of tests, the pre-plant incorporated (PPI) activity of compounds of this invention was evaluated on the same species as for the pre-emergence tests described above. In the PPI tests the following procedure, designed to simulate PPI application, was used.
# as §1, §2
row,SMILES,"PPI activity GR80, AVEFA [g/ha]"
1,CCN(CC)C(=O)n1cnc(S(=O)(=O)C(F)(F)C(=O)c2ccccc2)n1 [Example 6],300

# Same assay, conditions: weed, PPI application, 30 g/ha
row,SMILES,Percent inhibition AVEFA [%]
1,CCN(CC)C(=O)n1cnc(S(=O)(=O)C(F)(F)SC)n1 [Example 9],0
2,CCN(CC)C(=O)n1cnc(S(=O)(=O)C(F)(F)C(F)(F)Br)n1 [Example 4],10
3,CCN(CC)C(=O)n1cnc(S(=O)(=O)C(F)(F)F)n1 [Example 2],0

# Same assay, conditions: weed, PPI application, 100 g/ha
row,SMILES,Percent inhibition AVEFA [%]
1,CCN(CC)C(=O)n1cnc(S(=O)(=O)C(F)(F)SC)n1 [Example 9],20
2,CCN(CC)C(=O)n1cnc(S(=O)(=O)C(F)(F)C(F)(F)Br)n1 [Example 4],10
3,CCN(CC)C(=O)n1cnc(S(=O)(=O)C(F)(F)F)n1 [Example 2],10

# Same assay, conditions: weed, PPI application, 300 g/ha
row,SMILES,Percent inhibition AVEFA [%]
1,CCN(CC)C(=O)n1cnc(S(=O)(=O)C(F)(F)SC)n1 [Example 9],100
2,CCN(CC)C(=O)n1cnc(S(=O)(=O)C(F)(F)C(F)(F)Br)n1 [Example 4],50
3,CCN(CC)C(=O)n1cnc(S(=O)(=O)C(F)(F)F)n1 [Example 2],20

# Same assay, conditions: weed, PPI application, 900 g/ha
row,SMILES,Percent inhibition AVEFA [%]
1,CCN(CC)C(=O)n1cnc(S(=O)(=O)C(F)(F)SC)n1 [Example 9],100
2,CCN(CC)C(=O)n1cnc(S(=O)(=O)C(F)(F)C(F)(F)Br)n1 [Example 4],100
3,CCN(CC)C(=O)n1cnc(S(=O)(=O)C(F)(F)F)n1 [Example 2],50

# System: barley (HORVX)
# Assay: Selectivity test, PPI, cool season crop
# Format: in vivo, Hordeunm vulgare
# Settings: PPI application, 30 g/ha
# Protocol: as §1, §2, §3, §4
row,SMILES,Percent inhibition HORVX [%]
1,CCN(CC)C(=O)n1cnc(S(=O)(=O)C(F)(F)SC)n1 [Example 9],0
2,CCN(CC)C(=O)n1cnc(S(=O)(=O)C(F)(F)C(F)(F)Br)n1 [Example 4],0
3,CCN(CC)C(=O)n1cnc(S(=O)(=O)C(F)(F)F)n1 [Example 2],0

# Same assay, conditions: PPI application, 100 g/ha
row,SMILES,Percent inhibition HORVX [%]
1,CCN(CC)C(=O)n1cnc(S(=O)(=O)C(F)(F)SC)n1 [Example 9],0
2,CCN(CC)C(=O)n1cnc(S(=O)(=O)C(F)(F)C(F)(F)Br)n1 [Example 4],0
3,CCN(CC)C(=O)n1cnc(S(=O)(=O)C(F)(F)F)n1 [Example 2],30

# Same assay, conditions: PPI application, 300 g/ha
row,SMILES,Percent inhibition HORVX [%]
1,CCN(CC)C(=O)n1cnc(S(=O)(=O)C(F)(F)SC)n1 [Example 9],10
2,CCN(CC)C(=O)n1cnc(S(=O)(=O)C(F)(F)C(F)(F)Br)n1 [Example 4],50
3,CCN(CC)C(=O)n1cnc(S(=O)(=O)C(F)(F)F)n1 [Example 2],20

# Same assay, conditions: PPI application, 900 g/ha
row,SMILES,Percent inhibition HORVX [%]
1,CCN(CC)C(=O)n1cnc(S(=O)(=O)C(F)(F)SC)n1 [Example 9],40
2,CCN(CC)C(=O)n1cnc(S(=O)(=O)C(F)(F)C(F)(F)Br)n1 [Example 4],90
3,CCN(CC)C(=O)n1cnc(S(=O)(=O)C(F)(F)F)n1 [Example 2],100

# System: LOLMG (annual ryegrass)
# Assay: Post-emergence herbicidal activity, cool season
# Format: in vivo, Lolium multiflorum
# Settings: abraded plants sprayed at 300, 100, 30 and 10 g/ha; about 14 days after treatment
# Protocol: In another set of tests, the post-emergence activity of compounds of this invention was evaluated on the cool season species listed above. The following procedure was used.
# A pre-prepared topsoil mixture (described above) was placed in a pot and compacted to a depth of 1.0 to 1.25 cm from the top of the pot. Seeds of each of several monocotyledonous and dicotyledonous annual plant species were placed on top of the soil. The seeds were covered with a mixture of 50% topsoil and 50% Rediearth™ in sufficient quantity to level-fill the pots. The pots were then placed on a greenhouse bench and subirrigated as needed.
# When plants growing from the seeds had emerged and reached a suitable growth stage for post-emergence treatment, typically 9 to 14 days after planting, above-ground parts of the plants were subjected to a pre-treatment involving abrasion to create greater opportunity for foliar uptake of subsequently applied compounds. Abrasion was performed using garnet 200w particles applied with a Sears Craftsman hand-held sandblaster operated at approximately 850 kPa (50 psig) pressure.
# A known amount of each test compound dissolved or suspended in an appropriate organic solvent was diluted with a 50:50 mix of acetone and water and applied to the plants by spraying with a standard spray nozzle in a spray volume of […] at a spray pressure of 511 kPa (30 psig). Only the compounds of Examples 1, 8-15 and 17-22 were included in post-emergence tests. Application rates for these compounds were 300, 100, 30 and 10 g/ha. Control plants were abraded but not sprayed.
# After treatment the plants were placed in a greenhouse with an 18/13° C. day/night temperature regime and were subsequently watered as needed for growth. Approximately 14 days after treatment, the plants were observed and herbicidal efficacy recorded as percent inhibition by comparison with control plants. GR80 values were assigned for each compound as described above for the pre-emergence tests.
row,SMILES,"Post-emergence activity GR80, LOLMG"
1,CCN(CC)C(=O)n1cnc(S(=O)(=O)C(F)(F)SC)n1 [Example 9],[empty]
2,CCN(CC)C(=O)n1cnc(S(=O)(=O)C(F)(F)C(F)(F)SC)n1 [Example 14],[empty]
